Experimental data: patent US6740759B1, “Method for producing 2-alkyl-4-isothiazoline-3-one” (Chemicrea, Inc., priority 1999, dated 2004)

assay: mutagenicity (Ames) testing of the crystals obtained; type: cell-based; parameters: key: A “+” signifies a positive adverse effect on the body; a “−” denotes no adverse effect; details: crystals obtained in the example
Description: The numbers in the table enclosed by parentheses in the column of solvents used in the reaction denote the molar fraction of the solubility of hydrogen chloride at normal temperature/pressure. The purity of the crystals obtained in Working Examples 1 to 7 and in the Comparative Example was analyzed by high-performance liquid chromatography and submitted to mutagenicity (Ames) testing. A “+” signifies a positive adverse effect on the body while a “−” denotes no adverse effect.

Structure (SMILES) | Ames test
Cn1sccc1=O [Working Example 3, 2-methyl-4-isothiazoline-3-one] | −
CCCCCCCCn1sccc1=O [Working Example 4, 2-n-octyl-4-isothiazoline-3-one] | −
O=c1ccsn1Cc1ccccc1 [Working Example 7, 2-benzyl-4-isothiazoline-3-one] | −
